From EP0051819A2, “Tetra-substituted benzene derivatives, their preparation and pharmaceutical preparations containing them” (F. HOFFMANN-LA ROCHE & CO. Aktiengesellschaft, priority 1980, dated 1982) come the findings set out here.

By IC50 is commonly meant the concentration at which inhibition is half-maximal.

In one data set the test system is Rhinovirus HGP. As to the kind of experiment: Antiviral activity: inhibition of viral cytopathogenic effect (C.P.E.) in HeLa cell culture. In kind it is cell-based. Particulars: for IC50: Enterovirus, HeLa, 48 h; for antivirale Aktivität: qualitative statement in the description, no virus named. On the procedure: (§1) Eine Suspension von HeLa-Zellen (6 x 10^4) wurde mit Rhinovirus HGP (3 x 10^3 Plaque-bildende Einheiten, PFU) gemischt und auf eine Mikrotestplatte gebracht, die die zu testenden Verbindungen in zunehmender Verdünnung enthielten. Die Zellen wurden dann in Eagle's Minimalnährlösung, die 2% Kalbsserum, 1% Tryptosephosphatbrühe, 100 ug/ml Streptomycin und 20 Einheiten/ml Penicillin G enthielt, kultiviert. Der virale zytopathogenische Effekt (C.P.E.) und die Cytotoxizität wurden mikroskopisch nach 2 Tagen Kultivierung bei 33°C beobachtet. Die antivirale Aktivität (IC50) der Testverbindungen ist diejenige Konzentration,.bei der C.P.E. um 50% gegenüber der Kontrollkultur gehemmt war. Die Cytotoxizität ist als Minimalkonzentration angegeben, bei der toxische Symptome beobachtet wurden.(cytotoxische Dosis).

Data set [1] in a line: Cytotoxicity in HeLa cells, observed microscopically in the antiviral test. As to conditions: human, hela cells; minimal concentration at which toxic symptoms were observed (cytotoxische Dosis); 2 days at 33°C; read-out: Cytotoxizität. In kind it is cell-based. On the procedure: as §1
The mark [2] stands for this setting: concentration inhibiting C.P.E. by 50% versus control culture, HeLa cells, 2 days at 33°C, read-out: IC50.

≈ marks a conversion by molar mass, not a printed value. Where two headings read alike, the source gives them in different places.

`COc1cc(O)c(C(=O)CCc2ccc(Cl)cc2)c(OC)c1` [3-(4-Chlorophenyl)-1-(2-hydroxy--4,6-dimethoxyphenyl)-1--propanon]: the IC50 in the data set on Rhinovirus HGP (setting [2]) came out at 0.1 µg/mL (≈ 0.312 µM). For the same compound, in data set [1], the MCC at 48 h stood at 10 µg/mL.
For `C=CCOc1cc(O)c(C(=O)NCc2ccc(OC)cc2)c(OC)c1` [4-(Allyloxy)-2-hydroxy-6-methoxy-N-(p-methoxybenzyl)benzamid], in the data set with Rhinovirus HGP (setting [2]), the IC50 amounted to 0.002 µg/mL (≈ 0.00582 µM). Further, in the data set with Rhinovirus HGP, the “antivirale Aktivität” value was “besonders starke antivirale Aktivität”. For the same compound, in data set [1], the MCC at 48 h was above 8 µg/mL.
`CCOc1cc(O)c(C(=S)NCc2ccc(OC)cc2)c(OC)c1` [4-Ethoxy-2-hydroxy-6-methoxy-N-(p-methoxybenzyl)-thiobenzamid]: the concentration for half-maximal inhibition (IC50) with Rhinovirus HGP (setting [2]) amounted to 0.01 µg/mL (≈ 0.0288 µM). The MCC at 48 h in data set [1] was above 8 µg/mL.
`CCOc1cc(OC)c(C(=O)CCc2ccc(OC)cc2)c(OC(C)=O)c1` [5-Ethoxy-3-methoxy-2-[3-(4-methoxyphenyl)-propionyl]phenyl-acetat]: the IC50 with Rhinovirus HGP (setting [2]) is 0.001 µg/mL (≈ 0.00269 µM). Besides, in data set [1], the MCC at 48 h is above 8 µg/mL.
On to `CCOC(=O)Oc1cc(OCC)cc(OC)c1C(=O)CCc1ccc(OC)cc1` [5-Ethoxy-3-methoxy-2-[3-(4-methoxyphenyl)propionyl]-phenyl-ethylcarbonat], for which, in the data set with Rhinovirus HGP (setting [2]), the IC50 came out at 0.002 µg/mL (≈ 0.00497 µM). The “antivirale Aktivität” value with Rhinovirus HGP is recorded as “besonders starke antivirale Aktivität”. In addition, in data set [1], the MCC at 48 h stood at 8 µg/mL.
For `CCOc1cc(OC)c(C(=O)CCc2ccc(OC)cc2)c(OC(=O)c2ccccc2)c1` [5-Ethoxy-3-methoxy-2-[3-(4-methoxyphenyl)propionyl]phenyl-benzoat], the IC50 with Rhinovirus HGP (setting [2]) was 0.01 µg/mL (≈ 0.023 µM). Besides, in data set [1], the MCC at 48 h was above 8 µg/mL.
The matching figures for `CCCCCCCCCCCCCCCCCC(=O)Oc1cc(OCC)cc(OC)c1C(=O)CCc1ccc(OC)cc1` [5-Ethoxy-3-methoxy-2-[3-(4-methoxyphenyl)propionyl]phenyl-octadecanoat]: 0.9 µg/mL (≈ 1.51 µM) and above 8 µg/mL.
The matching figures for `CCOc1cc(OC)c(C(=O)CCc2ccc(OC)cc2)c(O[C@@H]2O[C@H](CO)[C@@H](O)[C@H](O)[C@H]2O)c1` [5-Ethoxy-3-methoxy-2-[3-(4-methoxyphenyl)propionyl]phenyl-ß-D-glucopyranosid]: 2.7 µg/mL (≈ 5.48 µM) and above 10 µg/mL.
Turning to `CCOc1cc(OC)c(C(=O)CCc2ccc(OC)cc2)c(OP(=O)(O)O)c1` [5-Ethoxy-3-methoxy-2-[3-(4-methoxyphenyl)propionyl]phenyldihydrogenphosphat], in the data set with Rhinovirus HGP, the IC50 lay within 0.3 to 0.8 µg/mL (≈ 0.731 to 1.95 µM). For the same compound, in data set [1], the MCC at 48 h was above 10 µg/mL.
As to `CCCOc1cc(OC)c(C(=O)NCc2ccc(OC)cc2)c(OP(=O)([O-])[O-])c1.[Na+].[Na+]` [Dinatrium 2-[(p-anisylamino)carbonyl]-3-methoxy-5-propoxyphenylphosphat], in the data set on Rhinovirus HGP, the IC50 was in the range of 0.01 to 0.02 µg/mL and the “antivirale Aktivität” value is on record as “besonders starke antivirale Aktivität”. Also, the MCC at 48 h in data set [1] is above 200 µg/mL.
Turning to `CCCCOc1ccc(CNC(=O)c2c(O)cc(OC)cc2OC)cc1` [N-(p-Butoxybenzyl)-2-hydroxy--4,6-dimethoxybenzamid], in the data set on Rhinovirus HGP (setting [2]), the IC50 turned out to be 0.3 µg/mL (≈ 0.835 µM). The MCC at 48 h in data set [1] worked out at 8 µg/mL.
For the compound `COc1cc(O)c(C(=O)NCc2ccc(Cl)cc2)c(OC)c1` [N-(p-Chlorobenzyl)-2-hydroxy--4,6-dimethoxybenzamid], in the data set with Rhinovirus HGP (setting [2]), the IC50 fell in the range of 0.01 to 0.03 µg/mL (≈ 0.0311 to 0.0932 µM). Moreover, the MCC at 48 h in data set [1] was above 2.4 µg/mL.
The matching figures for `COc1cc(O)c(C(=O)NCc2ccccc2)c(OC)c1` [N-Benzyl-2-hydroxy-4,6-dimethoxy-benzamid]: 0.03 to 0.1 µg/mL (≈ 0.104 to 0.348 µM) and above 8 µg/mL.
The matching figures for `COc1cc(O)c(C(=O)NCc2ccco2)c(OC)c1` [N-Furfuryl-2-hydroxy-4,6--dimethoxybenzamid]: 0.03 to 0.1 µg/mL (≈ 0.108 to 0.361 µM) and above 8 µg/mL.
For the compound `C=CCOc1ccc(CNC(=O)c2c(O)cc(OC)cc2OC)cc1` [N-[p-(Allyloxy)benzyl]-2-hydroxy-4,6-dimethoxybenzamid], the IC50 with Rhinovirus HGP (setting [2]) stood at 0.01 µg/mL (≈ 0.0291 µM). The MCC at 48 h in data set [1] came to 8 µg/mL.
